Assay results from PMC5111045, “Modulation of NMDA channel gating by Ca^2+ and Cd^2+ binding to the external pore mouth” (Scientific Reports, 2016).
Read-outs that look alike come from different tables or passages of the source.

Biological target: T1, NMDA receptor channel (GluN1a variant/GluN2B), wild-type (Rattus norvegicus, UniProt P35439+Q00960)
T1 construct: expressed in transfected cells; host or cells: Xenopus laevis oocytes (cRNA injection)
Assay: Outside-out patch recordings of NMDA receptor currents, wild-type channel expressed in Xenopus oocytes
Format: cell-based
Description: The rat GluN1a variant and GluN2B cDNA clones were used in this study. Point mutations were made by site-directed mutagenesis using the QuickChange Site-Directed Mutagenesis kit (Stratagene, La Jolla, CA). Mutations were verified by DNA sequencing to ensure the lack of any inadvertent mutations. The capped cRNA transcripts were then synthesized using T7 and T3 mMESSAGE mMACHINE transcription kits (Ambion, Austin, TX), and were stored at −80 °C.
This study was carried out in accordance with the ethical information guidelines of the National Taiwan University College of Medicine. The protocols for the care and use of animals were approved by the National Taiwan University College of Medicine and College of Public Health Institutional Animal Care and Use Committee (IACUC). All efforts were made to minimize animal suffering. Adult female Xenopus laevis were anesthetized, and ovarian lobes containing stage V or VI oocytes were removed. Oocytes were dispersed after manual disruption of the egg sac, and were digested for 1 hr with collagenase type I (2 mg/ml) to remove the follicular layer. A mixture of GluN1a variant and GluN2B cRNAs with a ratio of 1:5 (i.e., 0.1–4 ng of GluN1a variant and 0.5–20 ng of GluN2B) (Kashiwagi et al. 2002) was injected into oocytes. Oocytes were maintained in the culture medium (96 mM NaCl, 2 mM KCl, 1.8 mM MgCl2, 1.8 mM CaCl2, 5 mM HEPES, and 50 ug/ml gentamycin, pH 7.6) at 18 °C for 2–3 days before electrophysiological recordings.
Oocytes were placed in a recording chamber containing Mg^2+-free bath solution (150 mM NaMeSO3, 5 mM NaCl, and 10 mM HEPES; pH 7.4). Outside-out patch recordings were obtained using fire-polished pipettes pulled from borosilicate capillaries (outer diameter, 1.55–1.60 mm; Hilgenberg, Malsfeld, Germany). Recording pipettes ([…]) were filled with the pipette solution containing 150 mM NaMeSO3, 5 mM NaCl, 5 mM EGTA, and 10 mM HEPES (pH 7.4). A seal was formed, and the outside-out patch configuration was obtained in Tyrode’s solution (150 mM NaCl, 4 mM KCl, 2 mM MgCl2, 2 mM CaCl2, and 10 mM HEPES; pH 7.4). The patch was then lifted from the bottom of the chamber and moved in front of a set of “theta glass” tubes (2.0 mm outer diameter pulled to an opening of ~300 μm in width; Warner Instrument, Hamden, CT) emitting external recording solutions. The standard external solution was Mg^2+-free Ca^2+-free Tyrode’s solution (pH 7.4), but 2 mM Ca^2+ or 0.1–100 μM Cd^2+ may be added to the external recording solution as specified in each different experimental condition. The glass-tube holder was connected to a stepper motor (SF-77B perfusion system, Warner Instrument) to achieve fast switch for rapid solution change. Drugs and salts were purchased from Sigma (St. Louis, MO). NMDA, glycine, and Cd^2+ were dissolved in water to make 100, 100, and 10 mM stock solutions, respectively. The stock solutions were then diluted into the external recording solution to make 1 to 100 μM Cd^2+, 1 to 300 μM NMDA, and 30 μM glycine. The NMDA currents were recorded at a membrane potential of −70 mV and at room temperature (~25 °C) with an […] amplifier, filtered at 1 kHz with a four-pole Bessel filter, digitized at 500 μs intervals, and stored using a Digidata-1322A analog/digital interface along with the pCLAMP software (all from MDS Analytical Technologies, Sunnyvale, CA). To plot the activation and the desensitization curves, a patch was moved from the NMDA- and glycine-free external solution to the external solution containing 0 to 100 μM NMDA and 30 μM glycine for 3 s (the desensitization prepulse), and then moved to another external solution containing 300 μM NMDA and 30 μM glycine for 3 s (the test pulse) before being moved back to the NMDA-free external solution again. The amplitude of the sustained currents in the desensitization prepulse in each different concentration of NMDA is normalized to the maximal current and plotted against the NMDA concentration to obtain the activation curve. […]

T1 sequence (Q00960 27-1482, other chains not shown): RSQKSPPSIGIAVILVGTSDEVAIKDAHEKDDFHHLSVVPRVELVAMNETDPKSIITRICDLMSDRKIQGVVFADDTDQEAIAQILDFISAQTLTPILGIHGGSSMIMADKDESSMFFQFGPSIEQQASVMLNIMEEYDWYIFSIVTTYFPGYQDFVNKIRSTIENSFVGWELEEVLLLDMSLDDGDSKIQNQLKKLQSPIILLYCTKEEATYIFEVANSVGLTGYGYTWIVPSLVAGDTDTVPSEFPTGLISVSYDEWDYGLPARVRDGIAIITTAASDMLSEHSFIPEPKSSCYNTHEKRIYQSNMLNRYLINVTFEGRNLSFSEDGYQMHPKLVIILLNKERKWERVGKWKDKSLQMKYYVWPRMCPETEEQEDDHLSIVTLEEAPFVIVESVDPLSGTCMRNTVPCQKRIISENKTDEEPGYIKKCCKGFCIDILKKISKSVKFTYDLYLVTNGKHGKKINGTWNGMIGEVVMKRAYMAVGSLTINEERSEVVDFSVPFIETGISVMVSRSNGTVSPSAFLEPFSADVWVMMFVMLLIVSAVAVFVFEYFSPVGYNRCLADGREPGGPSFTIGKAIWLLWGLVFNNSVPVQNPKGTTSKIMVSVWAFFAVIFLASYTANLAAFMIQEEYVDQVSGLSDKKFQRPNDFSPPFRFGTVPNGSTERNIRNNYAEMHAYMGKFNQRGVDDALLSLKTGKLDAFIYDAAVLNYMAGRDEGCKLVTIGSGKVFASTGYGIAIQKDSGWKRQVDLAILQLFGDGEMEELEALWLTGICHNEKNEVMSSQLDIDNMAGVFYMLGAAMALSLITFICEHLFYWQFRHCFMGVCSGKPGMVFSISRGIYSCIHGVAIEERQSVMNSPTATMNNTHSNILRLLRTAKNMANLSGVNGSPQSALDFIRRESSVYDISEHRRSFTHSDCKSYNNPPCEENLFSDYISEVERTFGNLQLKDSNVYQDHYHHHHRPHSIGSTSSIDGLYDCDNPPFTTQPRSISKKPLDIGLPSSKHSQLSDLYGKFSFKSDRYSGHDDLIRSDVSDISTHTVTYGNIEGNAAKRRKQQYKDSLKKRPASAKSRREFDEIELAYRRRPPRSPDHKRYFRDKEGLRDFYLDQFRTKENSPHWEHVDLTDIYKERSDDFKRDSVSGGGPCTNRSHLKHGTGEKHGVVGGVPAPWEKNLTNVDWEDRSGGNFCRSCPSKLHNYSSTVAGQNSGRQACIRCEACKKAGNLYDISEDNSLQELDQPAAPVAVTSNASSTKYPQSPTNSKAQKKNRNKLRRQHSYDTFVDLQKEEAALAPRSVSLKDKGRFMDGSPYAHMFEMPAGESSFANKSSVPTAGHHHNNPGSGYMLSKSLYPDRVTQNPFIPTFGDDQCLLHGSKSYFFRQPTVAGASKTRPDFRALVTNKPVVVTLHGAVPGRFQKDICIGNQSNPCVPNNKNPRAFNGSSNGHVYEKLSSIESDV

## CN[C@H](CC(=O)O)C(=O)O [NMDA]
read-out: apparent dissociation constant of NMDA (KN), fit to activation data
  Kd: 47 µM
read-out: apparent dissociation constant of NMDA (KN), fit to desensitization data
  Kd: 35 µM
